The compounds below were run on test plant species (assay: Post-emergent herbicidal activity test (greenhouse, foliar spray, visual growth reduction)). Settings: post-emergence, 336 h, ECHCG: barnyardgrass (Echinochloa crus-galli), 140 g ai/ha, 14 days after application, read-out: Visual Growth Reduction (%) 14 Days After Application, ECHCG.
Assay type: in vivo
Method in brief: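 Seedlings were raised 7-21 d in a greenhouse under a 15 h photoperiod until the first or second true leaf. Each compound, dissolved in acetone:DMSO 97:3 and diluted into a surfactant-containing spray mixture, was then applied at 187 L/ha. Plants were subirrigated, and growth reduction was scored visually at 14 d.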
`CCOc1c(Cl)ccc(-c2ccc(Cl)c(C(=O)OC)n2)c1Cl` [F276, Methyl 3-chloro-6-(2,4-dichloro-3-ethoxyphenyl) picolinate] was tested, and the pest or weed control at 140 g/ha was 0 to 29%.
For `COC(=O)c1nc(-c2ccc(I)cc2F)c(F)cc1Cl` [F328, methyl 3-chloro-5-fluoro-6-(2-fluoro-4-iodophenyl)picolinate], the pest or weed control at 140 g/ha was 0 to 29%.

Same assay, conditions: post-emergence, 336 h, IPOHE: ivy-leaf morning glory (Ipomoea hederacea), 140 g ai/ha, 14 days after application, read-out: Visual Growth Reduction (%) 14 Days After Application, IPOHE
Compound `CCOc1c(Cl)ccc(-c2ccc(Cl)c(C(=O)OC)n2)c1Cl` [F276, Methyl 3-chloro-6-(2,4-dichloro-3-ethoxyphenyl) picolinate] has a pest or weed control at 140 g/ha of 0 to 29%.
With `COC(=O)c1nc(-c2ccc(I)cc2F)c(F)cc1Cl` [F328, methyl 3-chloro-5-fluoro-6-(2-fluoro-4-iodophenyl)picolinate] the pest or weed control at 140 g/ha was 85 to 94%.

Same assay, conditions: post-emergence, 336 h, KCHSC: kochia (Bassia scoparia), 140 g ai/ha, 14 days after application, read-out: Visual Growth Reduction (%) 14 Days After Application, KCHSC
With `CCOc1c(Cl)ccc(-c2ccc(Cl)c(C(=O)OC)n2)c1Cl` [F276, Methyl 3-chloro-6-(2,4-dichloro-3-ethoxyphenyl) picolinate] the pest or weed control at 140 g/ha was 0 to 29%.
`COC(=O)c1nc(-c2ccc(I)cc2F)c(F)cc1Cl` [F328, methyl 3-chloro-5-fluoro-6-(2-fluoro-4-iodophenyl)picolinate] showed a pest or weed control at 140 g/ha of 0 to 29%.

Same assay, conditions: post-emergence, 336 h, ORYSA: rice (Oryza sativa), 140 g ai/ha, 14 days after application, read-out: Visual Growth Reduction (%) 14 Days After Application, ORYSA
In the case of `CCOc1c(Cl)ccc(-c2ccc(Cl)c(C(=O)OC)n2)c1Cl` [F276, Methyl 3-chloro-6-(2,4-dichloro-3-ethoxyphenyl) picolinate], the pest or weed control at 140 g/ha is reported as 0 to 29%.
`COC(=O)c1nc(-c2ccc(I)cc2F)c(F)cc1Cl` [F328, methyl 3-chloro-5-fluoro-6-(2-fluoro-4-iodophenyl)picolinate] gave a pest or weed control at 140 g/ha of 0 to 29%.

Same assay, conditions: post-emergence, 336 h, SETFA: giant foxtail (Setaria faberi), 140 g ai/ha, 14 days after application, read-out: Visual Growth Reduction (%) 14 Days After Application, SETFA
In the case of `CCOc1c(Cl)ccc(-c2ccc(Cl)c(C(=O)OC)n2)c1Cl` [F276, Methyl 3-chloro-6-(2,4-dichloro-3-ethoxyphenyl) picolinate], the pest or weed control at 140 g/ha is reported as 0 to 29%.
Work on `COC(=O)c1nc(-c2ccc(I)cc2F)c(F)cc1Cl` [F328, methyl 3-chloro-5-fluoro-6-(2-fluoro-4-iodophenyl)picolinate] yielded a pest or weed control at 140 g/ha of 30 to 44%.

Same assay, conditions: post-emergence, 336 h, SORVU: grain sorghum (Sorghum vulgare), 140 g ai/ha, 14 days after application, read-out: Visual Growth Reduction (%) 14 Days After Application, SORVU
Compound `CCOc1c(Cl)ccc(-c2ccc(Cl)c(C(=O)OC)n2)c1Cl` [F276, Methyl 3-chloro-6-(2,4-dichloro-3-ethoxyphenyl) picolinate] has a pest or weed control at 140 g/ha of 0 to 29%.
`COC(=O)c1nc(-c2ccc(I)cc2F)c(F)cc1Cl` [F328, methyl 3-chloro-5-fluoro-6-(2-fluoro-4-iodophenyl)picolinate] showed a pest or weed control at 140 g/ha of 75 to 84%.

Same assay, conditions: post-emergence, 336 h, STEME: common chickweed (Stellaria media), 140 g ai/ha, 14 days after application, read-out: Visual Growth Reduction (%) 14 Days After Application, STEME
For `CCOc1c(Cl)ccc(-c2ccc(Cl)c(C(=O)OC)n2)c1Cl` [F276, Methyl 3-chloro-6-(2,4-dichloro-3-ethoxyphenyl) picolinate], the pest or weed control at 140 g/ha was 0 to 29%.
With `COC(=O)c1nc(-c2ccc(I)cc2F)c(F)cc1Cl` [F328, methyl 3-chloro-5-fluoro-6-(2-fluoro-4-iodophenyl)picolinate] the pest or weed control at 140 g/ha was 0 to 29%.

Same assay, conditions: post-emergence, 336 h, TRZAS: wheat, spring (Triticum aestivum), 140 g ai/ha, 14 days after application, read-out: Visual Growth Reduction (%) 14 Days After Application, TRZAS
`CCOc1c(Cl)ccc(-c2ccc(Cl)c(C(=O)OC)n2)c1Cl` [F276, Methyl 3-chloro-6-(2,4-dichloro-3-ethoxyphenyl) picolinate] was tested, and the pest or weed control at 140 g/ha was 0 to 29%.
In the case of `COC(=O)c1nc(-c2ccc(I)cc2F)c(F)cc1Cl` [F328, methyl 3-chloro-5-fluoro-6-(2-fluoro-4-iodophenyl)picolinate], the pest or weed control at 140 g/ha is reported as 0 to 29%.

Same assay, conditions: post-emergence, 336 h, blackgrass (Alopecurus myosuroides), 14 Days After Application, 140 g ai/ha, read-out: Visual Growth Reduction (%) ALOMY
`CCOc1c(Cl)ccc(-c2ccc(Cl)c(C(=O)OC)n2)c1Cl` [F276, Methyl 3-chloro-6-(2,4-dichloro-3-ethoxyphenyl) picolinate] was tested, and the pest or weed control at 140 g/ha was 0 to 29%.
In the case of `COC(=O)c1nc(-c2ccc(I)cc2F)c(F)cc1Cl` [F328, methyl 3-chloro-5-fluoro-6-(2-fluoro-4-iodophenyl)picolinate], the pest or weed control at 140 g/ha is reported as 0 to 29%.

Same assay, conditions: post-emergence, 336 h, canada thistle (Cirsium arvense), 14 Days After Application, 140 g ai/ha, read-out: Visual Growth Reduction (%) CIRAR
With `CCOc1c(Cl)ccc(-c2ccc(Cl)c(C(=O)OC)n2)c1Cl` [F276, Methyl 3-chloro-6-(2,4-dichloro-3-ethoxyphenyl) picolinate] the pest or weed control at 140 g/ha was 0 to 29%.
`COC(=O)c1nc(-c2ccc(I)cc2F)c(F)cc1Cl` [F328, methyl 3-chloro-5-fluoro-6-(2-fluoro-4-iodophenyl)picolinate] was tested, and the pest or weed control at 140 g/ha was 0 to 29%.

Same assay, conditions: post-emergence, 336 h, crabgrass (Digitaria sanguinalis), 14 Days After Application, 140 g ai/ha, read-out: Visual Growth Reduction (%) DIGSA
Work on `CCOc1c(Cl)ccc(-c2ccc(Cl)c(C(=O)OC)n2)c1Cl` [F276, Methyl 3-chloro-6-(2,4-dichloro-3-ethoxyphenyl) picolinate] yielded a pest or weed control at 140 g/ha of 0 to 29%.
For `COC(=O)c1nc(-c2ccc(I)cc2F)c(F)cc1Cl` [F328, methyl 3-chloro-5-fluoro-6-(2-fluoro-4-iodophenyl)picolinate], the pest or weed control at 140 g/ha was 75 to 84%.

Same assay, conditions: post-emergence, 336 h, lambsquarters (Chenopodium album), 14 Days After Application, 140 g ai/ha, read-out: Visual Growth Reduction (%) CHEAL
`CCOc1c(Cl)ccc(-c2ccc(Cl)c(C(=O)OC)n2)c1Cl` [F276, Methyl 3-chloro-6-(2,4-dichloro-3-ethoxyphenyl) picolinate] showed a pest or weed control at 140 g/ha of 0 to 29%.
Work on `COC(=O)c1nc(-c2ccc(I)cc2F)c(F)cc1Cl` [F328, methyl 3-chloro-5-fluoro-6-(2-fluoro-4-iodophenyl)picolinate] yielded a pest or weed control at 140 g/ha of 0 to 29%.

Same assay, conditions: post-emergence, 336 h, redroot pigweed (Amaranthus retroflexus), 14 Days After Application, 140 g ai/ha, read-out: Visual Growth Reduction (%) AMARE
Compound `CCOc1c(Cl)ccc(-c2ccc(Cl)c(C(=O)OC)n2)c1Cl` [F276, Methyl 3-chloro-6-(2,4-dichloro-3-ethoxyphenyl) picolinate] has a pest or weed control at 140 g/ha of 0 to 29%.
For `COC(=O)c1nc(-c2ccc(I)cc2F)c(F)cc1Cl` [F328, methyl 3-chloro-5-fluoro-6-(2-fluoro-4-iodophenyl)picolinate], the pest or weed control at 140 g/ha was 30 to 44%.

Same assay, conditions: post-emergence, 336 h, wild oat (Avena fatua), 14 Days After Application, 140 g ai/ha, read-out: Visual Growth Reduction (%) AVEFA
`CCOc1c(Cl)ccc(-c2ccc(Cl)c(C(=O)OC)n2)c1Cl` [F276, Methyl 3-chloro-6-(2,4-dichloro-3-ethoxyphenyl) picolinate] was tested, and the pest or weed control at 140 g/ha was 0 to 29%.
In the case of `COC(=O)c1nc(-c2ccc(I)cc2F)c(F)cc1Cl` [F328, methyl 3-chloro-5-fluoro-6-(2-fluoro-4-iodophenyl)picolinate], the pest or weed control at 140 g/ha is reported as 0 to 29%.

Same assay, conditions: post-emergence, 336 h, yellow nutsedge (Cyperus esculentus), 14 Days After Application, 140 g ai/ha, read-out: Visual Growth Reduction (%) CYPES
`CCOc1c(Cl)ccc(-c2ccc(Cl)c(C(=O)OC)n2)c1Cl` [F276, Methyl 3-chloro-6-(2,4-dichloro-3-ethoxyphenyl) picolinate] was tested, and the pest or weed control at 140 g/ha was 0 to 29%.
`COC(=O)c1nc(-c2ccc(I)cc2F)c(F)cc1Cl` [F328, methyl 3-chloro-5-fluoro-6-(2-fluoro-4-iodophenyl)picolinate] showed a pest or weed control at 140 g/ha of 0 to 29%.

— patent US20230017045A1, “PYRIDINE AND PYRIMIDINE CARBOXYLATE HERBICIDES AND METHODS OF USE THEREOF” (Dow AgroSciences LLC, priority 2017, published 2023)
